US20250214993A1, “AROMATIC RING COMPOUND AND USE THEREOF” (SHANGHAI SHIJIANG BIOTECHNOLOGY CO., LTD, priority 2022, published 2025)
pIC50: −log10 of the molar value.

Tested on: Con-NCI-H82 cell
Test: Cell viability (Promega CellTiter-Glo, intracellular ATP), IC50 on Con-NCI-H82 cell
Format: cell-based
Conditions: Homo sapiens; normal untreated NCI-H82 cell (control)
Source text: (§1) The expression of NNMT protein in NCI-H82 cell was overexpressed by inserting the NNMT gene into NCI-H82 cell using a viral vector, and the NNMT protein-overexpressing NCI-H82 cell (ov-NNMT NCI-H82 cell) was obtained. The normal and untreated NCI-H82 cell (Con-NCI-H82 cell) was used as control. The expressing content of NNMT protein in the ov-NNMT NCI-H82 cell and Con-NCI-H82 cell was detected using Western Blot assay (as shown in FIG. 1), it could be seen from FIG. 1 that the NNMT protein was overexpressed in the ov-NNMT NCI-H82 cell compared with the expression level of NNMT protein in the Con-NCI-H82 cell.
(§2) The cell viability was detected using the Promega CellTiter-Glo kit which reflected cell viability by measuring intracellular ATP content. The Con-NCI-H82 cell and ov-NNMT NCI-H82 cell was cultured in 10% fetal bovine serum-containing RPMI1640 medium (+P/S).

Structure (SMILES) | pIC50
CN1c2nc[n+](C3CCc4ccc(Cl)cc4C3=O)cc2CCC1c1ccccc1 (stereo not drawn) [AB27198] | 6.15
O=C1c2sccc2CCC1[n+]1ccc2c(ccn2Cc2ccccc2)c1 (stereo not drawn) [AB27200] | 5.95
Cc1c2ccn(Cc3ccccc3)c2cc[n+]1C1CCc2ccc(Cl)cc2C1=O (stereo not drawn) [AB27219] | 7.07
CC(=O)N(Cc1ccccc1)c1cc[n+](CC(=O)c2ccc(C)cc2)c(C)c1 [AB27222] | 7.25
CC(=O)N(Cc1ccccc1)c1cc[n+](C2CCc3ccc(Cl)cc3C2=O)cc1 (stereo not drawn) [AB27230] | 6.90
CCCCn1ccc2c[n+](C3CCc4ccc(Cl)cc4C3=O)ccc21 (stereo not drawn) [AB27251] | 6.32
Cc1ccc(C(=O)Cn2ccc3c[n+](Cc4ccccc4)cc(C)c32)cc1 [AB27256] | 7.66
Cc1c[n+](Cc2ccccc2)cc2ccn(CC(=O)c3cccc(Cl)c3)c12 [AB27257] | 7.12
Cc1ccc(C(=O)Cn2ccc3c[n+](C(C)c4ccccc4)ccc32)cc1 (stereo not drawn) [AB27261] | 7.64
Cc1ccc(C(=O)Cn2c(C)cc3c[n+](Cc4ccccc4)ccc32)cc1 [AB27277] | 7.82
Cc1ccc(C(=O)CNc2cc[n+](Cc3ccccc3)cc2)cc1 [AB27283] | 6.06
Cc1ccc(C(=O)C[n+]2ccc(N3CCc4ccccc43)cc2C)cc1 [AB27306] | 6.13
Cc1ccc(C(=O)C[n+]2ccc(N3CCCCC3)cc2)cc1 [AB27309] | 6.08
O=C1c2cc(Cl)ccc2CCC1n1ccc2c[n+](CC3CCCC3)ccc21 (stereo not drawn) [AB27316] | 6.78
Cc1ccc(C(=O)C[n+]2ccc(NCc3ccccc3)cc2C)c(F)c1 [AB27325] | 7.66
Cn1cc(Cc2ccccc2)c2cc[n+](C3CCc4ccc(C(F)(F)F)cc4C3=O)cc21 (stereo not drawn) [AB27338] | 6.41
O=C1c2sccc2CCC1n1ccc2c[n+](Cc3ccccc3)ccc21 (stereo not drawn) [AB27345] | 7.12
O=C1c2cc(F)ccc2CCC1[n+]1cnc2c(ccn2Cc2ccccc2)c1 (stereo not drawn) [AB27355] | 6.92
O=C1c2cc(F)ccc2CCC1[n+]1ccc2c(ccn2Cc2ccccc2)c1 (stereo not drawn) [AB27356] | 6.89
Cc1cc2c[n+](Cc3ccccc3)ccc2n1CC(=O)c1cccc(OC(F)(F)F)c1 [AB27455] | 7.66
Cc1cc2c[n+](Cc3ccccc3)ccc2n1CC(=O)c1cccc(C(F)(F)F)c1 [AB27456] | 7.66

Tested on: ov-NNMT NCI-H82 cell
Test: Cell viability (Promega CellTiter-Glo, intracellular ATP), IC50 on NNMT-overexpressing NCI-H82 cell
Format: cell-based
Conditions: Homo sapiens; NCI-H82 cell overexpressing NNMT protein
Source text: as §1, §2

Structure (SMILES) | pIC50
CN1c2nc[n+](C3CCc4ccc(Cl)cc4C3=O)cc2CCC1c1ccccc1 (stereo not drawn) [AB27198] | 5.45
O=C1c2sccc2CCC1[n+]1ccc2c(ccn2Cc2ccccc2)c1 (stereo not drawn) [AB27200] | 5.25
Cc1c2ccn(Cc3ccccc3)c2cc[n+]1C1CCc2ccc(Cl)cc2C1=O (stereo not drawn) [AB27219] | 5.88
CC(=O)N(Cc1ccccc1)c1cc[n+](C2CCc3ccc(Cl)cc3C2=O)cc1 (stereo not drawn) [AB27230] | 5.90
CCCCn1ccc2c[n+](C3CCc4ccc(Cl)cc4C3=O)ccc21 (stereo not drawn) [AB27251] | 5.57
Cc1c[n+](Cc2ccccc2)cc2ccn(CC(=O)c3cccc(Cl)c3)c12 [AB27257] | 6.01
Cc1ccc(C(=O)CNc2cc[n+](Cc3ccccc3)cc2)cc1 [AB27283] | 5.47
Cc1ccc(C(=O)C[n+]2ccc(N3CCc4ccccc43)cc2C)cc1 [AB27306] | 5.26
Cc1ccc(C(=O)C[n+]2ccc(N3CCCCC3)cc2)cc1 [AB27309] | 5.31
O=C1c2cc(Cl)ccc2CCC1n1ccc2c[n+](CC3CCCC3)ccc21 (stereo not drawn) [AB27316] | 5.95
Cn1cc(Cc2ccccc2)c2cc[n+](C3CCc4ccc(C(F)(F)F)cc4C3=O)cc21 (stereo not drawn) [AB27338] | 5.63
O=C1c2cc(F)ccc2CCC1[n+]1cnc2c(ccn2Cc2ccccc2)c1 (stereo not drawn) [AB27355] | 5.99
O=C1c2cc(F)ccc2CCC1[n+]1ccc2c(ccn2Cc2ccccc2)c1 (stereo not drawn) [AB27356] | 5.76

Now those with a higher pIC50, led by results:

pIC50 | Structure (SMILES)
6.07 | CC(=O)N(Cc1ccccc1)c1cc[n+](CC(=O)c2ccc(C)cc2)c(C)c1 [AB27222]
6.60 | Cc1ccc(C(=O)Cn2ccc3c[n+](Cc4ccccc4)cc(C)c32)cc1 [AB27256]
6.42 | Cc1ccc(C(=O)Cn2ccc3c[n+](C(C)c4ccccc4)ccc32)cc1 (stereo not drawn) [AB27261]
6.61 | Cc1ccc(C(=O)Cn2c(C)cc3c[n+](Cc4ccccc4)ccc32)cc1 [AB27277]
6.57 | Cc1ccc(C(=O)C[n+]2ccc(NCc3ccccc3)cc2C)c(F)c1 [AB27325]
6.04 | O=C1c2sccc2CCC1n1ccc2c[n+](Cc3ccccc3)ccc21 (stereo not drawn) [AB27345]
6.58 | Cc1cc2c[n+](Cc3ccccc3)ccc2n1CC(=O)c1cccc(OC(F)(F)F)c1 [AB27455]
6.42 | Cc1cc2c[n+](Cc3ccccc3)ccc2n1CC(=O)c1cccc(C(F)(F)F)c1 [AB27456]

Tested on: mPTP-active Daoy cell
Test: Cell viability (Promega CellTiter-Glo), IC50 on mPTP-active Daoy cell
Format: cell-based
Conditions: Homo sapiens; Daoy cell transfected with empty virus vector

Structure (SMILES) | pIC50
CN1c2nc[n+](C3CCc4ccc(Cl)cc4C3=O)cc2CCC1c1ccccc1 (stereo not drawn) [AB27198] | 5.12
O=C1c2sccc2CCC1[n+]1ccc2c(ccn2Cc2ccccc2)c1 (stereo not drawn) [AB27200] | 5.22
Cc1c2ccn(Cc3ccccc3)c2cc[n+]1C1CCc2ccc(Cl)cc2C1=O (stereo not drawn) [AB27219] | 5.29
CC(=O)N(Cc1ccccc1)c1cc[n+](CC(=O)c2ccc(C)cc2)c(C)c1 [AB27222] | 5.76
CC(=O)N(Cc1ccccc1)c1cc[n+](C2CCc3ccc(Cl)cc3C2=O)cc1 (stereo not drawn) [AB27230] | 5.53
CCCCn1ccc2c[n+](C3CCc4ccc(Cl)cc4C3=O)ccc21 (stereo not drawn) [AB27251] | 5.10
Cc1ccc(C(=O)Cn2ccc3c[n+](Cc4ccccc4)cc(C)c32)cc1 [AB27256] | 6.48
Cc1c[n+](Cc2ccccc2)cc2ccn(CC(=O)c3cccc(Cl)c3)c12 [AB27257] | 5.67
Cc1ccc(C(=O)Cn2ccc3c[n+](C(C)c4ccccc4)ccc32)cc1 (stereo not drawn) [AB27261] | 6.42
Cc1ccc(C(=O)Cn2c(C)cc3c[n+](Cc4ccccc4)ccc32)cc1 [AB27277] | 6.80
Cc1ccc(C(=O)CNc2cc[n+](Cc3ccccc3)cc2)cc1 [AB27283] | 4.98
Cc1ccc(C(=O)C[n+]2ccc(N3CCc4ccccc43)cc2C)cc1 [AB27306] | 5.00
Cc1ccc(C(=O)C[n+]2ccc(N3CCCCC3)cc2)cc1 [AB27309] | 5.07
O=C1c2cc(Cl)ccc2CCC1n1ccc2c[n+](CC3CCCC3)ccc21 (stereo not drawn) [AB27316] | 5.23
Cc1ccc(C(=O)C[n+]2ccc(NCc3ccccc3)cc2C)c(F)c1 [AB27325] | 5.70
Cn1cc(Cc2ccccc2)c2cc[n+](C3CCc4ccc(C(F)(F)F)cc4C3=O)cc21 (stereo not drawn) [AB27338] | 5.18
O=C1c2sccc2CCC1n1ccc2c[n+](Cc3ccccc3)ccc21 (stereo not drawn) [AB27345] | 5.17
O=C1c2cc(F)ccc2CCC1[n+]1cnc2c(ccn2Cc2ccccc2)c1 (stereo not drawn) [AB27355] | 5.23
O=C1c2cc(F)ccc2CCC1[n+]1ccc2c(ccn2Cc2ccccc2)c1 (stereo not drawn) [AB27356] | 5.26
Cc1cc2c[n+](Cc3ccccc3)ccc2n1CC(=O)c1cccc(OC(F)(F)F)c1 [AB27455] | 6.44
Cc1cc2c[n+](Cc3ccccc3)ccc2n1CC(=O)c1cccc(C(F)(F)F)c1 [AB27456] | 6.42

Tested on: mPTP-inactive Daoy cell
Test: Cell viability (Promega CellTiter-Glo), IC50 on mPTP-inactive Daoy cell (PPIF shRNA)
Format: cell-based
Conditions: Homo sapiens; Daoy cell transfected with PPIF shRNA vector

Structure (SMILES) | pIC50
CN1c2nc[n+](C3CCc4ccc(Cl)cc4C3=O)cc2CCC1c1ccccc1 (stereo not drawn) [AB27198] | 5.72
O=C1c2sccc2CCC1[n+]1ccc2c(ccn2Cc2ccccc2)c1 (stereo not drawn) [AB27200] | 5.67
Cc1c2ccn(Cc3ccccc3)c2cc[n+]1C1CCc2ccc(Cl)cc2C1=O (stereo not drawn) [AB27219] | 5.67
CC(=O)N(Cc1ccccc1)c1cc[n+](CC(=O)c2ccc(C)cc2)c(C)c1 [AB27222] | 6.18
CC(=O)N(Cc1ccccc1)c1cc[n+](C2CCc3ccc(Cl)cc3C2=O)cc1 (stereo not drawn) [AB27230] | 6.04
CCCCn1ccc2c[n+](C3CCc4ccc(Cl)cc4C3=O)ccc21 (stereo not drawn) [AB27251] | 5.71
Cc1ccc(C(=O)Cn2ccc3c[n+](Cc4ccccc4)cc(C)c32)cc1 [AB27256] | 6.92
Cc1c[n+](Cc2ccccc2)cc2ccn(CC(=O)c3cccc(Cl)c3)c12 [AB27257] | 6.06
Cc1ccc(C(=O)Cn2ccc3c[n+](C(C)c4ccccc4)ccc32)cc1 (stereo not drawn) [AB27261] | 6.74
Cc1ccc(C(=O)Cn2c(C)cc3c[n+](Cc4ccccc4)ccc32)cc1 [AB27277] | 7.52
Cc1ccc(C(=O)CNc2cc[n+](Cc3ccccc3)cc2)cc1 [AB27283] | 5.49
Cc1ccc(C(=O)C[n+]2ccc(N3CCc4ccccc43)cc2C)cc1 [AB27306] | 5.49
Cc1ccc(C(=O)C[n+]2ccc(N3CCCCC3)cc2)cc1 [AB27309] | 5.47
O=C1c2cc(Cl)ccc2CCC1n1ccc2c[n+](CC3CCCC3)ccc21 (stereo not drawn) [AB27316] | 5.93
Cc1ccc(C(=O)C[n+]2ccc(NCc3ccccc3)cc2C)c(F)c1 [AB27325] | 6.42
Cn1cc(Cc2ccccc2)c2cc[n+](C3CCc4ccc(C(F)(F)F)cc4C3=O)cc21 (stereo not drawn) [AB27338] | 5.68
O=C1c2sccc2CCC1n1ccc2c[n+](Cc3ccccc3)ccc21 (stereo not drawn) [AB27345] | 5.69
O=C1c2cc(F)ccc2CCC1[n+]1cnc2c(ccn2Cc2ccccc2)c1 (stereo not drawn) [AB27355] | 5.93
O=C1c2cc(F)ccc2CCC1[n+]1ccc2c(ccn2Cc2ccccc2)c1 (stereo not drawn) [AB27356] | 6.03
Cc1cc2c[n+](Cc3ccccc3)ccc2n1CC(=O)c1cccc(OC(F)(F)F)c1 [AB27455] | 6.96
Cc1cc2c[n+](Cc3ccccc3)ccc2n1CC(=O)c1cccc(C(F)(F)F)c1 [AB27456] | 6.89
